# Experiments:
# [1] = vorinostat with FOLFOX; cited from earlier work
# [2] = FU plasma pharmacokinetics; type: in vivo, human
smiles,measurement,setting,value
"O=c1[nH]cc(F)c(=O)[nH]1 [FU, 5-fluorouracil]",FU clearance at higher vorinostat dose-levels,[1],lower FU clearance
same,FU Cmax with vorinostat relative to without (times lower),"[2]; 1,700 mg vorinostat once daily, cycle 2 vs cycle 1, statistically significant",0.82 times
same,Change in FU clearance with the addition of vorinostat,[2]; once-daily or twice-daily MTD,did not observe any decrease
